Holding throughout (assay type): in vivo
Assay [1] has as its system ivyleaf morning glory (Ipomoea hederacea; IPOHE). As to the kind of experiment: Greenhouse foliar application, visual herbicidal activity on IPOHE. The settings on record: 14 to 21 days after application. An excerpt: (§1) 2,4-D (dimethylamine salt), dichlorprop (potassium salt) and Glyphomax XRT® herbicide (isopropylamine salt) alone and in combinations were applied to the foliage of rapidly growing plant material utilizing a track sprayer calibrated to deliver an application volume of 187 L/ha. Treated plant material was maintained in a greenhouse that provided a 16-hr photoperiod, supplemented with metal halide-generated light, set to provide a minimum of 500 μmolm^−2s^−1. The greenhouse was maintained at a temperature of 26 to 28° C. and a relative humidity of 50 to 70%. Assessment of herbicidal activity was performed visually 14 to 21 days after application.
(§2) The expected growth reduction of plant species from the combination of herbicides was calculated utilizing the Colby equation:
(§3) Expected growth reduction (E)=X+Y−(X*Y/100)
(§4) where X is % of growth reduction of a weed at a given concentration of a herbicide (or herbicide formulation) and Y is the % growth reduction of the same species and size weed at a given concentration of an independent herbicide (or herbicide formulation).

Assay [2] relates to Canada thistle (Cirsium arvense; CIRAR). As to the kind of experiment: Greenhouse foliar application, visual herbicidal activity on CIRAR. The settings on record: 14 to 21 days after application.
Excerpt: as §1, §2, §3, §4

The subject of assay [3] is prickly sida (Sida spinosa; SIDSP). As to the kind of experiment: Greenhouse foliar application, visual herbicidal activity on SIDSP. The settings on record: 2,4-D 140 g ae/ha alone, 14 to 21 days after application.
Excerpt: as §1, §2, §3, §4

For assay [4], the system named is velvetleaf (Abutilon theophrasti; ABUTH). Put plainly: Greenhouse foliar application, visual herbicidal activity on ABUTH. The settings on record: 14 to 21 days after application.
Excerpt: as §1, §2, §3, §4

For assay [5], the system named is common ragweed (Ambrosia artemesifolia; AMBEL). As to the kind of experiment: Greenhouse foliar application, visual herbicidal activity on AMBEL. The settings on record: 14 to 21 days after application.
Excerpt: as §1, §2, §3, §4

Assay [6] relates to spiderwort (Commelina benghalensis; COMBE). Put plainly: Greenhouse foliar application, visual herbicidal activity on COMBE. The settings on record: 14 to 21 days after application.
Excerpt: as §1, §2, §3, §4

In assay [7] the test system is hemp sesbania (Sesbania exaltata; SEBEX). Put plainly: Greenhouse foliar application, visual herbicidal activity on SEBEX. The settings on record: 14 to 21 days after application.
Excerpt: as §1, §2, §3, §4

Assay [8] has as its system field bindweed (Polygonum convolvulus; POLCO). Put plainly: Greenhouse foliar application, visual herbicidal activity on POLCO. The settings on record: 14 to 21 days after application.
Excerpt: as §1, §2, §3, §4

Assay [9] relates to common waterhemp (Amaranthus rudis; AMATA). As to the kind of experiment: Greenhouse foliar application, visual herbicidal activity on AMATA. The settings on record: 14 to 21 days after application.
Excerpt: as §1, §2, §3, §4

The test system of assay [10] is glyphosate-susceptible Conyza canadensis (ERICA). As to the kind of experiment: Greenhouse foliar application, visual herbicidal activity on glyphosate-susceptible ERICA. The settings on record: 14 to 21 days after application.
Excerpt: as §1, §2, §3, §4

The test system of assay [11] is glyphosate-resistant Conyza canadensis (ERICA). Put plainly: Greenhouse foliar application, visual herbicidal activity on glyphosate-resistant ERICA. The settings on record: 14 to 21 days after application.
Excerpt: as §1, §2, §3, §4

Assay [12] concerns glyphosate-resistant horseweed (ERICA, Conyza canadensis). Put plainly: Field study at Church Hill, Md., percent visual control of glyphosate-resistant horseweed. The settings on record: 29 days after application. As to the method: as §2, §3, §4
A field study was conducted at Church Hill, Md. where glyphosate-resistant horseweed (ERICA, Conyza canadensis) had been observed for 2-3 years prior to the start of this study. The study design was a split-plot with 4 replications per treatment and each plot was 3.048 M wide and 9.144 M long. The environmental conditions at the time of application were as follows: air temperature, 22° C.; wind speed, 6 kph; wind direction, south; releative humidity, 85%; cloud cover, 80%; target foliage moisture, none; soil moisture, moist; soil temperature at 5 cm depth, 21° C. The treatments were applied using a backpack CO2 sprayer, with six XR8003 flat fan nozzles spaced 46 cm apart (boom length: 2.76 M) and held 40 cm above the plant canopy. The sprayer was operated at 103 kPa and 4.8 kilometers per hour to deliver 187 L of water per hectare. At the time of applications the glyphosate-resistant horseweed were 30-38 cm tall and there were between 10 and 20 plants per square meter (m^2). The percent visual control of glyphosate-resistant horseweed was rated over the entire plot (27.87 m^2) 29 days after application. In each plot between 278 and 557 glyphosate-resistant horseweed plants were rated, collectively, for percent visual control.

The results in this text go back to US20090005248A1, “SYNERGISTIC HERBICIDAL COMPOSITION CONTAINING A SUBSTITUTED PHENOXY ALKANOIC ACID DERIVATIVE AND A GLYPHOSATE DERIVATIVE” (Dow AgroSciences LLC, priority 2007, published 2009).

`O=C(O)COc1ccc(Cl)cc1Cl` [2,4-D, 2,4-dichlorophenoxy acetic acid]: the “Actual Injury (% growth reduction)” value in assay [1] (2,4-D 70 g ae/ha alone) came out at 17 % growth reduction; in assay [2] (2,4-D 280 g ae/ha alone), 38 % growth reduction; in assay [3] it was 17 % growth reduction; in [4] (2,4-D 280 g ae/ha alone) it was 28 % growth reduction; in assay [5] (2,4-D 140 g ae/ha alone), 61 % growth reduction; in assay [6] (2,4-D 140 g ae/ha alone) it was 48 % growth reduction. Further, the “Actual Injury (% growth reduction)” value in assay [7] (2,4-D 280 g ae/ha alone) came out at 37 % growth reduction; in [8] (2,4-D 280 g ae/ha alone), 32 % growth reduction; in assay [9] (2,4-D 280 g ae/ha alone), 53 % growth reduction; in assay [10] (2,4-D 35 g ae/ha alone), 47 % growth reduction; in assay [11] (2,4-D 70 g ae/ha alone), 38 % growth reduction; in assay [12] (2,4-D 280 g ae/ha alone), 12.5 % growth reduction. Further, the “Actual Injury (% growth reduction)” value turned out to be 23.0 % growth reduction in [12] (2,4-D 560 g ae/ha alone) and 36.3 % growth reduction in assay [12] (2,4-D 1120 g ae/ha alone).
As to `CC(Oc1ccc(Cl)cc1Cl)C(=O)O` (stereo not drawn) [Dichlorprop, 2,4-dichlorophenoxy propionic acid], the “Actual Injury (% growth reduction)” value in assay [1] (Dichlorprop 70 g ae/ha alone) is on record as 68 % growth reduction; in [2] (Dichlorprop 70 g ae/ha alone), 48 % growth reduction; in [4] (Dichlorprop 70 g ae/ha alone), 33 % growth reduction; in [5] (Dichlorprop 280 g ae/ha alone) it was 58 % growth reduction; in [6] (Dichlorprop 70 g ae/ha alone), 80 % growth reduction; in assay [7] (Dichlorprop 140 g ae/ha alone), 38 % growth reduction. Moreover, the “Actual Injury (% growth reduction)” value in assay [8] (Dichlorprop 140 g ae/ha alone) amounted to 38 % growth reduction; in assay [9] (Dichlorprop 280 g ae/ha alone), 48 % growth reduction; in [10] (Dichlorprop 210 g ae/ha alone) it was 43 % growth reduction; in assay [11] (Dichlorprop 210 g ae/ha alone), 43 % growth reduction.
